Results published in the Deep4Chem optical property database.
Blank lines part the entries; values can stand above or below the compound they belong to.

Assay: photoluminescence quantum yield (fraction); solvent given as SMILES

photoluminescence quantum yield (in C1CCCCC1): 0.61
Compound: CCC(C)(C)c1ccc2c(c1)C(CCOC)(CCOC)c1cc(-c3ccc4c(c3)C(CCOC)(CCOC)c3cc(C(C)(C)CC)ccc3-4)ccc1-2

photoluminescence quantum yield (in C1CCCCC1): 0.79
Compound: Cc1cc(C)c(B2c3cc(C(C)(C)C)cc4ccc5ccc6cc(C(C)(C)C)cc2c6c5c34)c(C)c1

photoluminescence quantum yield (in ClC(Cl)Cl): 0.18
Compound: CC1(C)c2ccccc2-c2ccc(N3c4ccc(-c5ccc(/C=C6\C(=O)c7ccc(C(=O)O)cc7C6=O)s5)cc4C4CCCC43)cc21 (stereo unspecified)

Compound: CN(C)CCNCc1c2ccccc2cc2ccccc12
photoluminescence quantum yield (in C1CCCCC1): 0.0769
photoluminescence quantum yield (in C1CCOC1): 0.00216
photoluminescence quantum yield (in CC#N): 0.00137
photoluminescence quantum yield (in CC(C)=O): 0.0234
photoluminescence quantum yield (in CCO): 0.0179
photoluminescence quantum yield (in CN(C)C=O): 0.00064
photoluminescence quantum yield (in CO): 0.0124
photoluminescence quantum yield (in ClC(Cl)Cl): 0.0315

photoluminescence quantum yield (in C1COCCO1): 0.083
Compound: O=C1OC(c2ccccc2)=C/C1=C\c1ccc([N+](=O)[O-])cc1

photoluminescence quantum yield (in ClC(Cl)Cl): 0.28
Compound: COc1ccc2c(c1)CCC1=C(c3ccccc3)C3=Nc4c(-c5ccccc5)c5c(n4[B-](F)(F)[N+]3=C12)-c1ccc(OC)cc1CC5

photoluminescence quantum yield (in CCO): 0.55
Compound: COC(=O)CNC(=O)CCNc1cccc2ccccc12

Compound: CCCCCCCCOc1ccc(C#Cc2ccc(C#Cc3ccc(OCCCCCCCC)c(OCCCCCCCC)c3)c3nc4c5ccccc5c5ccccc5c4nc23)cc1OCCCCCCCC
photoluminescence quantum yield (in C1CCOC1): 0.18
photoluminescence quantum yield (in Cc1ccccc1): 0.19
photoluminescence quantum yield (in ClCCl): 0.33

photoluminescence quantum yield (in ClCCl): 0.074
Compound: Cc1cn2cc(-c3ccccc3)[n-][n+]2c1

Compound: C(=C\c1ccc(N(c2ccccc2)c2ccccc2)cc1)/c1ccc(/C=C/c2ccc(N(c3ccccc3)c3ccccc3)cc2)cc1
photoluminescence quantum yield (in Cc1ccccc1): 0.82

photoluminescence quantum yield (in C1CCOC1): 0.056
Compound: CN(C)c1ccc(C(=Cc2ccc(C#N)cc2)c2ccc(N(C)C)cc2)cc1

photoluminescence quantum yield (in CC#N): 0.009
Compound: C[C@@]12SC(Cl)=CC1=c1nc(-c3ccc(Cl)cc3)[nH]c1=C1C=C(Cl)S[C@]12C

photoluminescence quantum yield (in CS(C)=O): 0.11
Compound: C[N+]1=C(/C=C/C=C2/N(CCC[N+](C)(C)C)c3ccc(Br)cc3C2(C)C)C(C)(C)c2ccccc21

photoluminescence quantum yield (in C1CCOC1): 0.0031
photoluminescence quantum yield (in CC#N): 0.0035
photoluminescence quantum yield (in CCCCO): 0.0007
photoluminescence quantum yield (in CO): 0.0037
photoluminescence quantum yield (in CS(C)=O): 0.0022
Compound: CC(=O)Nc1ccc(O)cc1

photoluminescence quantum yield (in CC#N): 0.026
Compound: C[n+]1ccn(CCCCc2ccc3c(c2)c2ccccc2n3-c2cc(C#N)c(C#N)cc2-n2c3ccccc3c3cc(CCCCn4cc[n+](C)c4)ccc32)c1

Compound: COC(=O)c1ccc2ccc3cccc4ccc1c2c34
photoluminescence quantum yield (in C1CCOC1): 0.68
photoluminescence quantum yield (in CC#N): 0.79
photoluminescence quantum yield (in CCCCCC): 0.63
photoluminescence quantum yield (in CCO): 0.81
photoluminescence quantum yield (in CN(C)C=O): 0.74
photoluminescence quantum yield (in CO): 0.69
photoluminescence quantum yield (in Cc1ccccc1): 0.76
photoluminescence quantum yield (in ClCCl): 0.56

Compound: O=C1c2ccccc2-c2ccc(N3CCOCC3)c3cccc1c23
photoluminescence quantum yield (in C1CCOC1): 0.15
photoluminescence quantum yield (in CCCCCC): 0.33
photoluminescence quantum yield (in CCO): 0.12
photoluminescence quantum yield (in CCOC(C)=O): 0.3
photoluminescence quantum yield (in CN(C)C=O): 0.14
photoluminescence quantum yield (in CO): 0.12
photoluminescence quantum yield (in Cc1ccccc1): 0.64
photoluminescence quantum yield (in ClC(Cl)(Cl)Cl): 0.18
photoluminescence quantum yield (in ClC(Cl)Cl): 0.53
photoluminescence quantum yield (in ClCCl): 0.53
photoluminescence quantum yield (in c1ccccc1): 0.68

photoluminescence quantum yield (in C1COCCO1): 0.95
photoluminescence quantum yield (in CC#N): 0.86
photoluminescence quantum yield (in CO): 0.66
photoluminescence quantum yield (in ClCCl): 0.9
Compound: COC(=O)c1nc2c(N(C)C)nc(N(C)C)nc2n1Cc1ccccc1

photoluminescence quantum yield (in CC#N): 0.564
photoluminescence quantum yield (in CCCCCC): 0.108
photoluminescence quantum yield (in CO): 0.194
photoluminescence quantum yield (in ClC(Cl)Cl): 0.433
Compound: c1ccc2cc3cc(-c4cc(-c5nccs5)nc(-c5nccs5)c4)ccc3cc2c1

photoluminescence quantum yield (in CC#N): 0.607
Compound: N#Cc1nn(-c2ccccc2Cl)nc1N1CCCC1

photoluminescence quantum yield (in CS(C)=O): 0.58
Compound: Cc1ccc(-c2cc(/C=C/c3ccc(N(c4ccccc4)c4ccccc4)cc3)c(C#N)c(N3CCCCC3)c2)cc1

photoluminescence quantum yield (in CC#N): 0.36
photoluminescence quantum yield (in ClCCl): 0.37
Compound: CCCCCCCCCCCCc1ccc(-c2cc(C)[o+]c(C)c2)cc1

photoluminescence quantum yield (in ClC(Cl)Cl): 0.24
Compound: Cc1cc(C)c(C2=C3C=CC=[N+]3[B-]3(c4ccc5ccc6cccc7ccc4c5c67)Oc4cc(O)cc5c6ccc(C)cc6c6cc2n3c6c45)c(C)c1 (stereo unspecified)

photoluminescence quantum yield (in ClCCl): 0.91
Compound: COc1ccccc1C1=[N+]2C(=C(c3ccccc3)c3c4ccccc4c(-c4ccccc4OC)n3[B-]2(F)F)c2ccccc21

Compound: COc1cc(N(c2ccccc2)c2ccccc2)ccc1C=C(C#N)C#N
photoluminescence quantum yield (in C1COCCO1): 0.012
photoluminescence quantum yield (in CC#N): 0.005
photoluminescence quantum yield (in CC(C)=O): 0.013
photoluminescence quantum yield (in CCOC(C)=O): 0.017
photoluminescence quantum yield (in CN(C)C=O): 0.009
photoluminescence quantum yield (in CO): 0.006
photoluminescence quantum yield (in Cc1ccccc1): 0.01
photoluminescence quantum yield (in ClC(Cl)Cl): 0.023
photoluminescence quantum yield (in ClCCl): 0.016

Compound: CCC1=C(C)C2=C(c3ccc(-c4c5ccccc5c(-c5ccccc5)c5ccccc45)cc3)c3c(C)c(CC)c(C)n3[B-](F)(F)[N+]2=C1C
photoluminescence quantum yield (in CC#N): 0.696
photoluminescence quantum yield (in CCCCCC): 0.756
photoluminescence quantum yield (in CCO): 0.841
photoluminescence quantum yield (in CN(C)C=O): 0.232
photoluminescence quantum yield (in Cc1ccccc1): 0.781
photoluminescence quantum yield (in ClCCl): 0.744

photoluminescence quantum yield (in C1CCCCC1): 0.64
photoluminescence quantum yield (in ClC(Cl)Cl): 0.06
Compound: Clc1cc(Cl)c([C](c2c(Cl)cc(Cl)cc2Cl)c2c(Cl)cc(-n3c4ccccc4c4ccccc43)cc2Cl)c(Cl)c1

photoluminescence quantum yield (in C1COCCO1): 0.0191
photoluminescence quantum yield (in CC#N): 0.00752
photoluminescence quantum yield (in CCCCO): 0.0169
photoluminescence quantum yield (in CCCO): 0.0108
photoluminescence quantum yield (in CCO): 0.00738
photoluminescence quantum yield (in CCOC(C)=O): 0.0275
photoluminescence quantum yield (in CO): 0.00499
Compound: CN1C(C(=O)Nc2ccccn2)=C(O)c2sccc2S1(=O)=O

Compound: O=C1c2ccc3c4ccc5c6c(ccc(c7ccc(c2c37)C(=O)N1c1ccncc1)c64)C(=O)N(c1ccncc1)C5=O
photoluminescence quantum yield (in C1CCOC1): 0.508
photoluminescence quantum yield (in C1COCCO1): 0.847
photoluminescence quantum yield (in CC(C)=O): 0.758
photoluminescence quantum yield (in CC(C)O): 0.454
photoluminescence quantum yield (in CCCCO): 0.46
photoluminescence quantum yield (in CCO): 0.201
photoluminescence quantum yield (in CCOC(C)=O): 0.337
photoluminescence quantum yield (in CN(C)C=O): 0.438
photoluminescence quantum yield (in CO): 0.206
photoluminescence quantum yield (in CS(C)=O): 0.057
photoluminescence quantum yield (in ClC(Cl)(Cl)Cl): 0.97
photoluminescence quantum yield (in ClC(Cl)Cl): 0.97

photoluminescence quantum yield (in CO): 0.89
photoluminescence quantum yield (in CS(C)=O): 0.92
photoluminescence quantum yield (in ClC(Cl)Cl): 0.96
photoluminescence quantum yield (in c1ccccc1): 1
Compound: CCC1=C(C)C(=O)n2c1cc1c(C)cc(C)n1c2=O

photoluminescence quantum yield (in CO): 0.07
Compound: CC1(C)C(/C=C/C2=C(Oc3ccc(CCN=C=S)cc3)C(=C/C=C3/N(CCCS(=O)(=O)[O-])c4ccccc4C3(C)C)/CCC2)=[N+](CCCS(=O)(=O)[O-])c2ccccc21

photoluminescence quantum yield (in ClCCl): 0.05
Compound: [O-][n+]1c(/C=C/c2ccc3ccccc3c2)nc(N2CCOCC2)c2c1CCCC2

Compound: Cc1ccc(OCc2cc(=O)oc3c2ccc2ccccc23)cc1
photoluminescence quantum yield (in C1CCOC1): 0.0561
photoluminescence quantum yield (in C1COCCO1): 0.0665
photoluminescence quantum yield (in CC#N): 0.0506
photoluminescence quantum yield (in CC(C)=O): 0.0465
photoluminescence quantum yield (in CCCCO): 0.0333
photoluminescence quantum yield (in CCCO): 0.0312
photoluminescence quantum yield (in CCO): 0.028
photoluminescence quantum yield (in CCOC(C)=O): 0.0471
photoluminescence quantum yield (in CN(C)C=O): 0.0576
photoluminescence quantum yield (in CO): 0.0265
photoluminescence quantum yield (in Cc1ccccc1): 0.0798
photoluminescence quantum yield (in ClCCl): 0.0584

photoluminescence quantum yield (in C1CCOC1): 0.33
photoluminescence quantum yield (in CC#N): 0.17
photoluminescence quantum yield (in CO): 0.11
photoluminescence quantum yield (in ClCCl): 0.25
Compound: C(=C\c1nc2ccccc2s1)/c1ccc(-c2nc3c4cccnc4c4ncccc4c3[nH]2)cc1

photoluminescence quantum yield (in ClCCl): 0.12
Compound: CC(C)[Si](C#Cc1ccc(C#Cc2c3cc4ccccc4cc3c(C#C[Si](C(C)C)(C(C)C)C(C)C)c3cc4ccccc4cc23)cc1)(C(C)C)C(C)C

photoluminescence quantum yield (in ClCCl): 0.73
Compound: CCCCCCn1c2ccccc2c2cc(-c3ccc(-c4cc(-c5ccccn5)nc(-c5ccccn5)c4)cc3)ccc21

photoluminescence quantum yield (in C1CCOC1): 0.33
Compound: Cc1cscc1-c1cc2c3cc(-c4cscc4C)c4nc(C(F)(F)C(F)(F)C(F)(F)F)nc5c(-c6cscc6C)cc(c6cc(-c7cscc7C)c7nc(C(F)(F)C(F)(F)C(F)(F)F)nc1c7c26)c3c45

photoluminescence quantum yield (in ClC(Cl)Cl): 0.55
Compound: CC1(C)CC[N+]2=c3c(cc4c(c31)Oc1cc3c(cc1C=4c1ccccc1C(=O)O)C(c1ccccc1C(=O)O)=c1cc4c5c(c1O3)C(C)(C)CC[N+]=5CCC4)CCC2

Compound: Cc1cc(C)c(B(c2ccc(-n3c4ccccc4c4ccccc43)cc2)c2c(C)cc(C)cc2C)c(C)c1
photoluminescence quantum yield (in Cc1ccccc1): 0.75

photoluminescence quantum yield (in ClCCl): 0.29
Compound: F[B-]12Oc3ccccc3-c3c4[n+]5c(c([n+]31)-c1ccccc1O2)-c1ccccc1O[B-]5(F)Oc1ccccc1-4

photoluminescence quantum yield (in CC#N): 0.043
Compound: COC(=O)C12N=N[C@](C(=O)OC)(C3C4CCC(C4)C31)[C@@]1(C)C[C@@H]21 (stereo partly specified)

photoluminescence quantum yield (in ClC(Cl)Cl): 0.15
Compound: Cc1ccc2c(c1)c(C#N)c(C#N)c1cc(C)ccc12

Compound: c1ccc(-c2cc(-c3ccc(N4c5ccccc5C(c5ccccc5)(c5ccccc5)c5ccccc54)cc3)nc(-c3ccccc3)n2)cc1
photoluminescence quantum yield (in O=P(c1ccccc1)(c1ccccc1)c1ccccc1Oc1ccccc1P(=O)(c1ccccc1)c1ccccc1): 0.7

photoluminescence quantum yield (in ClCCl): 0.95
Compound: O=C1OC(=O)C2=C1S[C@]13C2=C[C@H](c2ccccc21)c1ccccc13

photoluminescence quantum yield (in ClC(Cl)Cl): 0.186
Compound: O=C1c2ccc3c4c(-c5ccccc5)cc5c6c(ccc(c7c(-c8ccccc8)cc(c2c37)C(=O)N1C1CCCCC1)c64)C(=O)N(C1CCCCC1)C5=O

photoluminescence quantum yield (in CC#N): 0.0066
Compound: COC(=O)[C@@]12N=N[C@@H](C3C[C@H]31)[C@@H]1C[C@@H]12 (stereo partly specified)

photoluminescence quantum yield (in ClC(Cl)Cl): 0.9
Compound: CCOC(CN1C(=O)C2=C(c3ccsc3)N(CC(OCC)OCC)C(=O)C2=C1c1ccsc1)OCC

photoluminescence quantum yield (in C1CCOC1): 0.053
photoluminescence quantum yield (in ClC(Cl)Cl): 0.059
Compound: CCCCCCCCC1(CCCCCCCC)c2cc3c(cc2-c2sc(-c4ccc(/C=C5\SC(SCC)=NC5=O)c5nsnc45)cc21)C(CCCCCCCC)(CCCCCCCC)c1cc(-c2ccc(/C=C4\SC(SCC)=NC4=O)c4nsnc24)sc1-3

photoluminescence quantum yield (in ClC(Cl)Cl): 0.1
Compound: CC(C)c1cccc(C(C)C)c1-n1c(=O)c2cc3nc(-c4ccccc4)c4cc5c(=O)n(-c6c(C(C)C)cccc6C(C)C)c(=O)c6cc7c(-c8ccccc8)nc8cc(c1=O)c2c1c3c4c(c56)c7c81

photoluminescence quantum yield (in c1ccccc1): 0.039
Compound: CCOC(=O)CSc1nc2c(c(C#N)c1C#N)CCCCCC2
